{"source": "paper PMC4772543", "about": "“Immune responses to Mycobacterial heat shock protein 70 accompany self-reactivity to human BiP in rheumatoid arthritis” (Scientific Reports, 2016)", "key": {"[1]": {"tested_on": "collagen-induced arthritis in DBA/1 J mice", "assay": "Oral administration of peptide in collagen-induced arthritis (CIA)", "assay_type": "in vivo, mouse", "procedure": "Figure 6 Oral tolerance of MycHSP70_287–306 peptides in a collagen-induced arthritis model. (A,B) The MycHSP70_287–306 peptide or control (PBS alone) was orally administered to bovine type II collagen-immunized DBA/1 J mice after the occurrence of CIA for 5 continuous days (n = 12). Mice were sacrificed on day 35. Arthritis scores were measured by finger and paw swelling, and histological scores were measured by cell infiltration (C), pannus formation (P), and bone destruction (B). (C) Splenic CD4^+ T cell proliferation from CIA-induced DBA/1 J mice in response to a recall antigen (Ag) stimulation (MycHSP70_287–306 and BiP336–355 epitopes, and heat-denatured bovine type II collagen (BC II)). Proliferation was determined by[3]-H thymidine incorporation. (D) Serum anti-BiP and anti-BC II antibody titers were measured by ELISA. (E,F) Mouse IL-10 and TGF-beta1 concentrations in the splenic CD4^+ T cell culture were measured by ELISA. Data were representative of at least three independent trials. *p < 0.05, **p < 0.01, ***p < 0.001.\nSerum antibodies were measured by ELISA as previously reported. Briefly, 96-well plates (Thermo Fisher Scientific) were coated with 5 μg/mL of each antigen and dissolved in 0.1 M NaHCO3. Diluted samples (100x) were applied, followed by goat anti-human IgG-horseradish peroxidase (HRP) (5000:1,Vector) or goat anti-mouse IgG-HRP (5000:1, Life Technologies) detection antibodies and TMB solution (KPL) for development.\nCIA in the background of DBA/1 J female mice (SLC Japan) was performed and arthritis scores were acquired as previously described. In the therapeutic experiments, mice were administered 200 μg of MycHSP287–306 peptides orally for 5 continuous days following the onset of arthritis. Mice were sacrificed on day 35, and the CD4^+ T cell culture was performed as described above. Mouse cytokine concentrations in the supernatants were measured using a mouse IL-10 ELISA kit and mouse/human TGF-beta 1 ELISA kit (eBioscience) according to the manufacturer’s protocol. Tissue samples were embedded in paraffin wax after 10% formaldehyde fixation and decalcification. Sections were stained with hematoxylin and eosin. Synovial tissues were graded by mononuclear cell infiltration, pannus formation, and cartilage erosion, as described previously. All animal experiments were conducted in accordance with Institutional and National Guidelines, and the protocols were approved by the Ethical Committee on Animal Experiments of the University of Tokyo. […]\nOral tolerance of MycHSP70287-306 peptides on collagen-induced arthritis (CIA) model. The experimental protocol was the same as Figure 6.\n(A)(B)Mouse IL-17 and IFN-gamma concentrations in the splenic CD4+ T cell culture was measured by ELISA (Mouse cytokine ELISA ready-set-go, eBioscience) according to the manufacture’s protocol. (C) The frequencies of splenic regulatory T cells in CIA (n=4, each). FACS analysis was performed by FACS Vantage (BD Bioscience). Cells were stained by anti-mouse CD4\nAPC antibody, anti-mouse CD25 FITC antibody, FOXP3 staining was performed using anti-mouse Foxp3 PE antibody (eBioscience) by using […]"}, "[2]": {"tested_on": "PBMCs of HLA-DR4-positive RA patients", "assay": "Peptide-induced cytokine secretion from PBMCs (ELISA)", "assay_type": "cell-based, human", "procedure": "Figure 3 MycHSP70_287–306 was a HLA-DR4-restricted epitope in RA. (A) The proliferation of PBMCs in RA patients (Shared epitope (SE) +/+ n = 12, SE +/− n = 22, SE−/− n = 9) and HDs (SE +/− n = 10) in response to MycHSP70_287–306. Proliferation was determined by the incorporation of [3]-H thymidine. The stimulation index (SI) was calculated using the following equation: (median thymidine uptake to an antigen)/(median thymidine uptake in the absence of an antigen). Horizontal line: the median. (B) Amino acid sequences of MycHSP70 (lower lines) and human BiP (upper lines) near the epitopes. Epitope sequences are indicated in bold letters. (C) Relationship between MycHSP70_287–306-induced proliferation and BiP336–355-induced proliferation in RA PBMCs (9 patients with SE +/+ and 14 patients with SE +/−). (D) Blockade of the MycHSP287–306-induced proliferation of PBMCs from HLA-DR4-positive RA patients (n = 6) using an anti-HLA-DR antibody. (E) The secretion of MycHSP287–306-induced IFN-γ from the PBMCs of HLA-DR4-positive HDs (n = 6) and RA patients (n = 8). (F) Blockade of MycHSP287–306-induced cytokine secretion from the PBMCs of HLA-DR4-positive RA patients (n = 6) using an anti-HLA-DR antibody. *p < 0.05, **p < 0.01, ***p < 0.001.\nPBMCs (1 × 10^6/mL) isolated with Ficoll-Paque (GE Healthcare) were cultured in the presence or absence of each peptide (10 μg/mL) with RPMI 1640 medium supplemented with 10% human serum, 2 mM L-glutamine, 100 U/ml penicillin, and 100 μg/ml streptomycin in a humidified incubator at 37 °C, 5% CO2, for 96 hours. Cells were incubated for 18 h following a ^3H-thymidine pulse into each well and harvested using a semiautomated sample harvester. Counts per minute were measured with a scintillation counter. In some experiments, the culture supernatants were collected after a 72-hour incubation and cytokine concentrations were measured in the culture supernatants by a human IFN-γ high sensitivity ELISA kit and human IL-17 high sensitivity ELISA kit (eBioscience). […]"}, "[3]": {"conditions": "CIA mice given peptide orally vs PBS, ELISA"}, "[4]": {"conditions": "peptide 10 μg/mL, supernatant after 72-hour incubation, ELISA"}}, "data": [{"sequence": "DRTRKPFQSVIADTGISVSE [MycHSP70_287–306]", "values": [{"measurement": "development of arthritis (arthritis scores)", "setting": "[1]; 200 μg peptide orally for 5 continuous days after onset of arthritis, vs PBS, n = 12, sacrificed day 35", "result": "significantly improved"}, {"measurement": "histological scores", "setting": "[1]; 200 μg peptide orally for 5 continuous days, cell infiltration, pannus formation, bone destruction, day 35", "result": "significantly improved"}, {"measurement": "serum anti-BC II antibody titers", "setting": "[1]; [3]", "result": "significantly decreased"}, {"measurement": "serum anti-BiP antibody titers", "setting": "[1]; [3]", "result": "significantly decreased"}, {"measurement": "frequency of CD4+ CD25+ Foxp3+ regulatory T cells", "setting": "[1]; splenic, CIA mice given peptide orally vs PBS, n=4 each, FACS", "result": "increased"}, {"measurement": "peptide-induced IFN-γ and IL-17 secretion with anti-HLA-DR antibody", "setting": "[2]; HLA-DR4-positive RA patients n = 6, anti-HLA DR antibody (L243) 10 μg/mL", "result": "blocked"}, {"measurement": "secretion of interferon (IFN)-γ", "setting": "[2]; [4]", "result": "induced"}, {"measurement": "secretion of interleukin (IL)-17", "setting": "[2]; [4]", "result": "induced"}]}]}
